{"source": "patent US20160259918A1", "about": "“Computational Approach for Identifying a Combination of Two Drugs” (ALACRIS THERANOSTICS GMBH, priority 2013, published 2016)", "system": "cell line HS695T", "assay": "Cell viability via Trypan blue staining in cell culture experiments", "type": "cell-based", "details": "Homo sapiens, Hs 695T", "protocol": "Cell lines and pharmacological characterization. Cell line HS695T (CLS) was cultured in DMEM (4 mM L-glutamine, 4.5 g/l glucose, Invitrogen) with 10% fetal bovine serum (Biochrom) and maintained at 37° C. under 5% CO2 atmosphere. The cells were dispensed as triplicates into a 6-well-plate-formate with a concentration of 5×10^5 per well 24 hours prior to drug treatment. Afterwards medium was replaced with a final drug concentration range of 2.5 nM to 8 μM by 3.16-fold dilutions (eight-dose response) of Sunitinib and PI103 as single treatment HS695T for 72 and 96 hours. […] Compounds (Selleckchem) were diluted in DMSO. The final DMSO concentration for the experiments was under 0.4%. Cell viability was determined via Trypan blue staining in duplicates for each well. 100 μl of cells were incubated with an equal volume of 0.5% Trypan blue for 2-5 minutes (in 0.9% sodium chloride) and counted using a Neubauer haemocytometer chamber and a light microscope. The means of independent cell counts were taken for analysis.\nPredicted growth inhibition curves were compared to measured growth inhibition curves as previously described.", "note": "Where two headings read alike, the source gives them in different places.", "data": [{"smiles": "Oc1cccc(-c2nc(N3CCOCC3)c3oc4ncccc4c3n2)c1", "note": "[PI103]", "values": [{"measurement": "IC50", "setting": "read-out: IC50 values determined by cell culture experiments", "result": 830, "unit": "nM"}, {"measurement": "IC50", "setting": "read-out: sensitivity classification according to IC50 determined by cell culture experiments", "result": "< 2000", "unit": "nM"}]}, {"smiles": "CCN(CC)CCNC(=O)c1c(C)[nH]c(/C=C2\\C(=O)Nc3ccc(F)cc32)c1C", "note": "[Sunitinib]", "values": [{"measurement": "IC50", "setting": "HS695T, read-out: sensitivity classification according to IC50 determined by cell culture experiments", "result": "> 2000", "unit": "nM"}, {"measurement": "IC50", "setting": "HS695T, single treatment, 2.5 nM to 8 μM, 72 and 96 hours, Trypan blue cell counts, read-out: IC50 values determined by cell culture experiments", "result": 4700, "unit": "nM"}]}]}
